The assay deals with CD2F1 mice, L1210 leukemia ip, survival T/C. The assay can be described thus: NCI In Vivo Anticancer Drug Screen. Data for tumor model L1210 Leukemia (intraperitoneal) in CD2F1 (CDF1) mice. The settings on record: higher = longer survival. The method, boiled down: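 Tumor-bearing mice (transplanted tumor) were split into treated and vehicle control groups, and the measured endpoint of each treated group was divided by that of its vehicle controls.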

Where [1] appears, read: endpoint: mean survival time, dose: 12.5 mg/kg/injection, schedule: Q01DX009 (ip), vehicle: saline with Tween-80.
The mark [2] stands for this setting: endpoint: mean survival time, dose: 25.0 mg/kg/injection, schedule: Q01DX009 (ip), vehicle: saline with Tween-80.
[3] abbreviates: endpoint: mean survival time, dose: 50.0 mg/kg/injection, schedule: Q01DX009 (ip), vehicle: saline with Tween-80.
Where [4] appears, read: endpoint: mean survival time, dose: 100.0 mg/kg/injection, schedule: Q04DX003 (ip), vehicle: saline with Tween-80.
Setting [5] is: endpoint: mean survival time, dose: 200.0 mg/kg/injection, schedule: Q04DX003 (ip), vehicle: saline with Tween-80.

Eleven compounds from PubChem BioAssay AID256 (DTP/NCI, 2004) can be followed below.

Where “and” joins values, the source holds several entries; their conditions need not be identical. Equal entries are not always repeated. Inconclusive results and toxic doses are left out.

Turning to `Nc1nc(Br)nc2c1ncn2C1CC(O)C(CO)O1` (stereo not drawn), the T/C was 120 % of control (endpoint: median survival time, dose: 3.8 mg/kg/injection, schedule: Q03HX009 (ip), vehicle: saline); 152 % of control (endpoint: median survival time, dose: 10.0 mg/kg/injection, schedule: Q03HX024 (ip), vehicle: saline); 163 % of control (endpoint: median survival time, dose: 15.0 mg/kg/injection, schedule: Q03HX009 (ip), vehicle: water); 164 % of control and 174 % of control (endpoint: median survival time, dose: 20.0 mg/kg/injection, schedule: Q03HX024 (ip), vehicle: saline); 195 % of control (endpoint: median survival time, dose: 30.0 mg/kg/injection, schedule: Q03HX009 (ip), vehicle: suspension in saline); 237 % of control (endpoint: median survival time, dose: 30.0 mg/kg/injection, schedule: Q03HX009 (ip), vehicle: water). The T/C (endpoint: median survival time, dose: 30.0 mg/kg/injection, schedule: Q03HX024 (ip), vehicle: saline) is 329 % of control; the T/C (endpoint: median survival time, dose: 40.0 mg/kg/injection, schedule: Q03HX024 (ip), vehicle: saline) was 728 % of control; the T/C (endpoint: median survival time, dose: 53.0 mg/kg/injection, schedule: Q03DX003 (ip), vehicle: saline) was 121 % of control; the T/C (endpoint: median survival time, dose: 60.0 mg/kg/injection, schedule: Q03HX009 (ip), vehicle: suspension in saline) is 243 % of control; the T/C (endpoint: median survival time, dose: 60.0 mg/kg/injection, schedule: Q03HX009 (ip), vehicle: water) is 221 % of control; the T/C (endpoint: median survival time, dose: 80.0 mg/kg/injection, schedule: Q03DX003 (ip), vehicle: saline) was 118 % of control. Besides, the T/C reads like this: (endpoint: median survival time, dose: 120.0 mg/kg/injection, schedule: Q03DX003 (ip), vehicle: saline) 122 % of control; (endpoint: median survival time, dose: 120.0 mg/kg/injection, schedule: Q03HX009 (ip), vehicle: suspension in saline) 193 % of control.
Regarding `CC1=C2C(=O)[C@H]3[C@@H](CC=C4C[C@@H](O)CC[C@@]43C)[C@@H]2CC[C@]12O[C@@H]1C[C@H](C)CN[C@H]1[C@H]2C`, the T/C is 100 % of control under setting [1]; 93 % of control under setting [2]; 91 % of control under setting [3]; 91 % of control (endpoint: mean survival time, dose: 200.0 mg/kg/injection, schedule: Q01DX001 (ip), vehicle: saline with Tween-80); 88 % of control (endpoint: mean survival time, dose: 400.0 mg/kg/injection, schedule: Q01DX001 (ip), vehicle: saline with Tween-80).
For `Nc1ccc(S(=O)(=O)Nc2ccccc2O)cc1`, the T/C is 103 % of control (endpoint: mean survival time, dose: 3.0 mg/kg/injection, schedule: Q01DX001 (ip), vehicle: saline with Tween-80); 103 % of control (endpoint: mean survival time, dose: 6.25 mg/kg/injection, schedule: Q01DX001 (ip), vehicle: saline with Tween-80); 103 % of control (endpoint: mean survival time, dose: 12.5 mg/kg/injection, schedule: Q01DX001 (ip), vehicle: saline with Tween-80); 102 % of control (endpoint: mean survival time, dose: 25.0 mg/kg/injection, schedule: Q01DX001 (ip), vehicle: saline with Tween-80); 102 % of control (endpoint: mean survival time, dose: 50.0 mg/kg/injection, schedule: Q01DX001 (ip), vehicle: saline with Tween-80).
For `CCn1c(-c2ccc(OC(C)=O)cc2)c(C)c2cc(OC(C)=O)ccc21`, the T/C is, setting by setting: (endpoint: median survival time, dose: 25.0 mg/kg/injection, schedule: Q01DX009 (ip), vehicle: Klucel (hydroxypropylcellulose) (HPC)) 107 % of control; (endpoint: median survival time, dose: 50.0 mg/kg/injection, schedule: Q01DX009 (ip), vehicle: Klucel (hydroxypropylcellulose) (HPC)) 102 % of control; (endpoint: median survival time, dose: 100.0 mg/kg/injection, schedule: Q01DX009 (ip), vehicle: Klucel (hydroxypropylcellulose) (HPC)) 96 % of control; (endpoint: median survival time, dose: 200.0 mg/kg/injection, schedule: Q01DX009 (ip), vehicle: Klucel (hydroxypropylcellulose) (HPC)) 102 % of control; (endpoint: median survival time, dose: 400.0 mg/kg/injection, schedule: Q01DX009 (ip), vehicle: Klucel (hydroxypropylcellulose) (HPC)) 90 % of control.
As for `CS(=O)(=O)c1ccncc1`, the T/C by setting is: (endpoint: mean survival time, dose: 100.0 mg/kg/injection, schedule: Q04DX003 (ip), vehicle: saline sonified) 95 % of control; (endpoint: mean survival time, dose: 200.0 mg/kg/injection, schedule: Q04DX003 (ip), vehicle: saline sonified) 98 % of control.
`O=C(O[Si](Cc1ccccc1)(Cc1ccccc1)Cc1ccccc1)N(CCCl)CCCl`: the T/C (endpoint: mean survival time, dose: 6.25 mg/kg/injection, schedule: Q01DX009 (ip), vehicle: distilled water + Tween-80) is 109 % of control; the T/C (endpoint: mean survival time, dose: 6.25 mg/kg/injection, schedule: Q01DX009 (ip), vehicle: saline with Tween-80) was 96 % of control; the T/C under setting [1] is 103 % of control; the T/C (endpoint: mean survival time, dose: 25.0 mg/kg/injection, schedule: Q01DX009 (ip), vehicle: distilled water + Tween-80) is 117 % of control; the T/C under setting [2] is 111 % of control; the T/C under setting [3] is 121 % of control. In addition, the T/C by setting is: (endpoint: mean survival time, dose: 100.0 mg/kg/injection, schedule: Q01DX009 (ip), vehicle: saline with Tween-80) 123 % of control; (endpoint: mean survival time, dose: 200.0 mg/kg/injection, schedule: Q01DX009 (ip), vehicle: distilled water + Tween-80) 91 % of control; (endpoint: mean survival time, dose: 200.0 mg/kg/injection, schedule: Q01DX009 (ip), vehicle: saline with Tween-80) 152 % of control.
On to `O=C1C(O)=C(c2ccccc2)C(=O)C(O)=C1c1ccccc1`, for which the T/C is 96 % of control (endpoint: mean survival time, dose: 3.12 mg/kg/injection, schedule: Q01DX009 (ip), vehicle: saline); 95 % of control (endpoint: mean survival time, dose: 6.25 mg/kg/injection, schedule: Q01DX009 (ip), vehicle: saline); 97 % of control (endpoint: mean survival time, dose: 12.5 mg/kg/injection, schedule: Q01DX009 (ip), vehicle: saline); 101 % of control (endpoint: mean survival time, dose: 25.0 mg/kg/injection, schedule: Q01DX009 (ip), vehicle: saline); 108 % of control (endpoint: mean survival time, dose: 50.0 mg/kg/injection, schedule: Q01DX009 (ip), vehicle: saline).
On to `CC(C)(Cl)[N+](=O)[O-]`, for which the T/C by setting is: (endpoint: mean survival time, dose: 100.0 mg/kg/injection, schedule: Q04DX003 (ip), vehicle: saline) 98 % of control; (endpoint: mean survival time, dose: 200.0 mg/kg/injection, schedule: Q04DX003 (ip), vehicle: saline) 104 % of control; (endpoint: mean survival time, dose: 400.0 mg/kg/injection, schedule: Q04DX003 (ip), vehicle: saline) 96 % of control.
As for `CC1CC[N-]CC1.CC1CC[N-]CC1.CC1CC[N-]CC1.CC1CC[N-]CC1.[Cl][Rh][Cl]`, the T/C by setting is: (endpoint: mean survival time, dose: 50.0 mg/kg/injection, schedule: Q01DX009 (ip), vehicle: saline sonified) 97 % of control; (endpoint: mean survival time, dose: 100.0 mg/kg/injection, schedule: Q01DX009 (ip), vehicle: saline sonified) 97 % of control; under setting [4], 111 % of control; under setting [5], 86 % of control.
Turning to `O=[N+]([O-])C1(Br)C(c2ccccc2)C=CC(c2ccccc2)C1c1ccccc1` (stereo not drawn), the T/C is, setting by setting: under setting [4], 95 % of control; under setting [5], 95 % of control; (endpoint: mean survival time, dose: 400.0 mg/kg/injection, schedule: Q04DX003 (ip), vehicle: saline with Tween-80) 91 % of control.
For `O=C(c1cccnc1)c1c[nH]c2ccccc12`, the T/C (endpoint: mean survival time, dose: 100.0 mg/kg/injection, schedule: Q04DX002 (ip), vehicle: saline with Tween-80) was 101 % of control; the T/C (endpoint: mean survival time, dose: 200.0 mg/kg/injection, schedule: Q04DX002 (ip), vehicle: saline with Tween-80) is 97 % of control; the T/C (endpoint: mean survival time, dose: 400.0 mg/kg/injection, schedule: Q04DX002 (ip), vehicle: saline with Tween-80) was 97 % of control.
